Laboratory results from patent US20260078114A1, “COMPOUND USED AS INHIBITOR OF CDK4 KINASE AND USE THEREOF” (TYK MEDICINES, INC., priority 2022, published 2026).

Experiments:
[1] = system: Human breast cancer cell MCF-7; assay: Cellular antiproliferative assay (MTT, 5 days), MCF-7; assay type: cell-based; conditions: Homo sapiens, MCF7, 120 h, MCF-7 cells, 5 days incubation
Experimental: (§1) Human breast cancer cell MCF-7, ovarian cancer cell A2780, human mantle cell lymphoma cell JEKO-1. DMEM medium (Bio-Channel), DMSO (dimethyl sulfoxide), MTT (thiazolyl blue), 0.25% EDTA-Tripsin (tryptic digest), 1×PBS (phosphate buffer, PH7.2), 96-well plate (Corning), fetal bovine serum (FBS), 10,000 U/mL penicillin-G/streptomycin, high-speed cryo-centrifuge (EPPENDORF 5810R), enzyme-linked immunoassay (Tecan Spark).
(§2) • A) Tumor cells were cultured in DMEM (high sugar with 10% FBS and 100 U/mL penicillin-G/streptomycin) at 37° C., 5% CO2 and saturated humidity until 80-90% dense. • B) Removed the culture medium from 10 cm Petri dishes; • C) Rinsed the cells once with 10 ml 1×PBS; • D) Added 4 ml 0.25% EDTA-Tripsin into 37° C., 5% CO2 incubator for trypsin digestion for 5 minutes, transferred to 15 ml centrifuge tube, centrifuged at 200 g for 5 minutes, discarded the supernatant to get cell precipitate; • E) Resuspended with 4 ml DMEM medium, counted and adjust to 50,000 cells/ml. • F) Added cell suspension to 96-well plate with 100 μL per well volume and incubated overnight at 37° C., 5% CO2 incubator.
(§3) • A) Preparation of gradient dilution solution of the tested compound: the test compound was configured into 1 mM reservoir solution.
(§4) • A) Taking the cell culture plate and adding 10 μL of 5 mg/ml MTT in the biosafety cabinet; • B) Putting the cell culture plate back into the incubator and continued incubation for 3 hours; • C) Taking the cell culture plate and removing the culture medium, adding 100 μL isopropanol (containing 0.4 mM HCl, 0.1% NP-40), and shaking the bed at room temperature for 30 min; and • D) Determining the absorbance value by selecting 570 nm on a TECAN enzyme-linked immunoassay detector.
(§5) The % Cell Viability was calculated using the following formula:
(§6) [formula] • Lum_HC: 0.1% DMSO control cell reading • Lum_Sample: cell readings with compound added • Lum_LC: Blank medium reading

[2] = system: ovarian cancer cell A2780; assay: Cellular antiproliferative assay (MTT, 5 days), A2780; assay type: cell-based, human; conditions: Homo sapiens, 120 h, A2780 cells, 5 days incubation
Experimental: as §1, §2, §3, §4, §5, §6

[3] = system: human mantle cell lymphoma cell JEKO-1; assay: Cellular antiproliferative assay (MTT, 5 days), JEKO-1; assay type: cell-based; conditions: Homo sapiens, 120 h, JEKO-1 cells, 5 days incubation
Experimental: as §1, §2, §3, §4, §5, §6

SMILES | IC50 [1] [nM] | IC50 [2] [nM] | IC50 [3] [nM]
CC(C)n1c(N2CC(O)C2)nc2c(F)cc(-c3nc(N[C@@H]4CCOC[C@H]4O)ncc3Cl)cc21 [TB-14, 1-(6-(5-chloro-2-(((38,4R)-3-hydroxytetrahydro-2H-pyran-4-yl)amino)pyrimidin-4-yl)-4-fluoro-1-isopropyl-1H-benzo[d]imidazol-2-yl)azetidin-3-ol] | ≤ 500 | ≤ 500 | ≤ 500
CC(C)n1c(N2CCOC2=O)nc2c(F)cc(-c3nc(NC4CCN(S(=O)(=O)C(C)C)CC4)ncc3Cl)cc21 [TB-32] | ≤ 500 | ≤ 500 | ≤ 500
CC(C)n1c(N2CCCOC2=O)nc2c(F)cc(-c3nc(N[C@@H]4CCOC[C@H]4O)ncc3Cl)cc21 [TB-25] | 500 to 2000 | ≤ 500 | ≤ 500
CNS(=O)(=O)c1ccc(Nc2ncc(Cl)c(-c3cc(F)c4nc5n(c4c3)C(C)CCN5C)n2)cc1 (stereo not drawn) [TB-53, 4-((5-chloro-4-(9-fluoro-1,4-dimethyl-1,2,3,4-tetrahydrobenzo[4,5]imidazo[1,2-a]pyrimidin-7-yl)pyrimidin-2-yl)amino)-N-methylbenzenesulfonamide] | ≤ 500 | ≤ 500 | ≤ 500
CC(C)n1c(N2CC[C@@H](O)C2)nc2c(F)cc(-c3nc(N[C@@H]4CCOC[C@H]4O)ncc3Cl)cc21 [TB-7, (R)-1-(6-(5-chloro-2-(((3S,4R)-3-hydroxytetrahydro-2H-pyran-4-yl)amino)pyrimidin-4-yl)-4-fluoro-1-isopropyl-1H-benzo[d]imidazol-2-yl)pyrrolidin-3-ol] | ≤ 500 | ≤ 500 | ≤ 500
CN1C(=O)CCn2c1nc1c(F)cc(-c3nc(N[C@@H]4CCOC[C@H]4O)ncc3Cl)cc12 [TB-46, 7-(5-chloro-2-(((3S,4R)-3-hydroxytetrahydro-2H-pyran-4-yl)amino)pyrimidin-4-yl)-9-fluoro-1-methyl-3,4-dihydrobenzo[4,5]imidazo[1,2-a]pyrimidin-2(1H)-one] | ≤ 500 | ≤ 500 | ≤ 500
CC(C)n1c(N(C)C)nc2c(F)cc(-c3nc(N[C@@H]4CCOC[C@H]4O)ncc3Cl)cc21 [TB-1] | ≤ 500 | ≤ 500 | ≤ 500
C[C@@H]1CCN(C)c2nc3c(F)cc(-c4nc(N[C@@H]5CCOC[C@H]5O)ncc4Cl)cc3n21 [TB-91, (3S,4R)-4-((5-chloro-4-((R)-9-fluoro-1,4-dimethyl-1,2,3,4-tetrahydrobenzo[4,5]imidazo[1,2-a]pyrimidin-7-yl)pyrimidin-2-yl)amino)tetrahydro-2H-pyran-3-ol] | ≤ 500 | ≤ 500 | ≤ 500
CC1CCN(C)c2nc3c(F)cc(-c4nc(NC5CCN(S(C)(=O)=O)CC5)ncc4Cl)cc3n21 (stereo not drawn) [TB-51, 5-chloro-4-(9-fluoro-1,4-dimethyl-1,2,3,4-tetrahydrobenzo[4,5]imidazo[1,2-a]pyrimidin-7-yl)-N-(1-(methylsulfonyl)piperidin-4-yl)pyrimidin-2-amine] | ≤ 500 | ≤ 500 | ≤ 500
C[C@H]1C[C@H](C)n2c(nc3c(F)cc(-c4nc(N[C@@H]5CCOC[C@H]5O)ncc4Cl)cc32)N1C [TB-153] | ≤ 500 | ≤ 500 | ≤ 500
COCc1cc(Nc2ncc(Cl)c(-c3cc(F)c4nc5n(c4c3)CCCN5C)n2)ccn1 [TB-130, 5-chloro-4-(9-fluoro-1-methyl-1,2,3,4-tetrahydrobenzo[4,5]imidazo[1,2-a]pyrimidin-7-yl)-N-(2-(methoxymethyl)pyridin-4-yl)pyrimidin-2-amine] | ≤ 500 | ≤ 500 | ≤ 500
CC1CCN(C)c2nc3c(F)cc(-c4nc(N[C@@H]5CCOC[C@H]5O)ncc4Cl)cc3n21 (mixture of isomers) [TB-44, (3S,4R)-4-((5-chloro-4-(9-fluoro-1,4-dimethyl-1,2,3,4-tetrahydrobenzo[4,5]imidazo[1,2-a]pyrimidin-7-yl)pyrimidin-2-yl)amino)tetrahydro-2H-pyran-3-ol] | ≤ 500 | ≤ 500 | ≤ 500
CC(C)n1c(N(C)C)nc2c(F)cc(-c3nc(N[C@@H]4CCN(S(C)(=O)=O)C[C@H]4O)ncc3Cl)cc21 [TB-13, (3R,4R)-4-((5-chloro-4-(2-(dimethylamino)-4-fluoro-1-isopropyl-1H-benzo[d]imidazol-6-yl)pyrimidin-2-yl)amino)-1-(methylsulfonyl)piperidin-3-ol] | ≤ 500 | ≤ 500 | ≤ 500
